According to PubChem BioAssay (NCI):
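Compound exposure: 48 hours, 5 concentrations, 96-well plates. Abbreviation: GI50, concentration required for 50% inhibition of growth. TGI: concentration producing complete growth inhibition.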

Tests used:
Test in all cases: NCI tumour cell line growth inhibition, 48 h
[1] = system: SN12C renal
[2] = system: U251 CNS
[3] = system: SK-MEL-5 melanoma
[4] = system: SF-295 CNS
[5] = system: HS 578T breast
[6] = system: HOP-62 NSCLC
[7] = system: HL-60(TB) leukemia
[8] = system: KM12 colon
[9] = system: BT-549 breast
[10] = system: HCC-2998 colon
[11] = system: TK-10 renal
[12] = system: MOLT-4 leukemia
[13] = system: SW-620 colon
[14] = system: NCI-H460 lung
[15] = system: SR leukemia
[16] = system: MCF7 breast
[17] = system: OVCAR-8 ovarian
[18] = system: HT29 colon
[19] = system: MDA-MB-435
[20] = system: RPMI-8226 leukemia
[21] = system: K-562 leukemia
[22] = system: NCI-H226 lung
[23] = system: MALME-3M melanoma
[24] = system: A498 renal
[25] = system: NCI-H23 lung
[26] = system: DU-145 prostate
[27] = system: UO-31 renal
[28] = system: CAKI-1 renal
[29] = system: 786-0 renal
[30] = system: COLO 205 colon
[31] = system: SNB-75 CNS
[32] = system: SK-OV-3 ovarian
[33] = system: MDA-MB-231 breast
[34] = system: A549 NSCLC
[35] = system: SK-MEL-28 melanoma
[36] = system: SK-MEL-2 melanoma
[37] = system: SF-539 CNS
[38] = system: T-47D breast
[39] = system: HCT-15 colon
[40] = system: LOX IMVI melanoma
[41] = system: OVCAR-3 ovarian
[42] = system: HCT-116 colon
[43] = system: SNB-19 CNS
[44] = system: M14 melanoma
[45] = system: PC-3 prostate
[46] = system: CCRF-CEM leukemia
[47] = system: ACHN renal
[48] = system: RXF 393 renal
[49] = system: NCI-H522 lung
[50] = system: UACC-257 melanoma
[51] = system: SF-268 CNS
[52] = system: HOP-92 NSCLC
[53] = system: IGROV1 ovarian
[54] = system: OVCAR-4 ovarian
[55] = system: OVCAR-5 ovarian
[56] = system: NCI/ADR-RES ovarian
[57] = system: UACC-62 melanoma

## CS(=O)(=O)N1CCC(Nc2ncc(C(=O)c3c(F)cccc3F)c(N)n2)CC1
[1]
  GI50: 12.3 µM
  TGI: > 25 µM
[2]
  GI50: 6.33 µM
  TGI: > 25 µM
[3]
  GI50: 7.65 µM
  TGI: > 25 µM
[4]
  GI50: 11.2 µM
  TGI: > 25 µM
[5]
  GI50: 15.1 µM
  TGI: > 25 µM
[6]
  GI50: 12.6 µM
  TGI: > 25 µM
[7]
  GI50: 8.65 µM
  TGI: > 25 µM
[8]
  GI50: 8.67 µM
  TGI: > 25 µM
[9]
  GI50: > 20.7 µM
  TGI: > 25 µM
[10]
  GI50: 12.9 µM
  TGI: > 25 µM
[11]
  GI50: 7.98 µM
  TGI: > 25 µM
[12]
  GI50: 11.2 µM
  TGI: > 25 µM
[13]
  GI50: 5.73 µM
  TGI: > 25 µM
[14]
  GI50: 4.25 µM
  TGI: > 25 µM
[15]
  GI50: 3.79 µM
  TGI: > 18.5 µM
[16]
  GI50: 2.11 µM
  TGI: > 25 µM
[17]
  GI50: 9.7 µM
  TGI: > 25 µM
[18]
  GI50: 10.1 µM
  TGI: > 25 µM
[19]
  GI50: 11.1 µM
  TGI: > 25 µM
[20]
  GI50: 7.67 µM
  TGI: > 25 µM
[21]
  GI50: 20.4 µM
  TGI: > 25 µM
[22]
  GI50: 7.27 µM
  TGI: > 25 µM
[23]
  GI50: 10.6 µM
  TGI: > 25 µM
[24]
  GI50: 9.15 µM
  TGI: > 25 µM
[25]
  GI50: 8.6 µM
  TGI: > 25 µM
[26]
  GI50: 9.76 µM
  TGI: > 25 µM
[27]
  GI50: 12 µM
  TGI: > 25 µM
[28]
  GI50: 8.76 µM
  TGI: > 25 µM
[29]
  GI50: 12.6 µM
  TGI: > 25 µM
[30]
  GI50: 6.26 µM
  TGI: > 25 µM
[31]
  GI50: > 10.9 µM
  TGI: 24.3 µM
[32]
  GI50: > 25 µM
  TGI: > 25 µM
[33]
  GI50: 11.9 µM
  TGI: > 25 µM
[34]
  GI50: 6.14 µM
  TGI: > 25 µM
[35]
  GI50: 18.6 µM
  TGI: > 25 µM
[36]
  GI50: > 20.9 µM
  TGI: > 25 µM
[37]
  GI50: 9.36 µM
  TGI: > 25 µM
[38]
  GI50: 12 µM
  TGI: > 25 µM
[39]
  GI50: 11.8 µM
  TGI: > 25 µM
[40]
  GI50: 9.9 µM
  TGI: > 25 µM
[41]
  GI50: 13.7 µM
  TGI: > 25 µM
[42]
  GI50: 6 µM
  TGI: > 25 µM
[43]
  GI50: 6.45 µM
  TGI: > 25 µM
[44]
  GI50: 19.4 µM
  TGI: > 25 µM
[45]
  GI50: 4.8 µM
  TGI: > 25 µM
[46]
  GI50: 9.91 µM
  TGI: > 25 µM
[47]
  GI50: 7.06 µM
  TGI: > 25 µM
[48]
  GI50: 5.32 µM
  TGI: 17.9 µM
[49]
  GI50: > 13.1 µM
  TGI: > 25 µM
[50]
  GI50: 13.2 µM
  TGI: > 25 µM
[51]
  GI50: > 17.9 µM
  TGI: > 25 µM
[52]
  GI50: 1.96 µM
  TGI: > 20.8 µM
[53]
  GI50: 11.4 µM
  TGI: > 25 µM
[54]
  GI50: > 13.5 µM
  TGI: > 25 µM
[55]
  GI50: 9.78 µM
  TGI: > 25 µM
[56]
  GI50: > 25 µM
  TGI: > 25 µM
[57]
  GI50: 12.6 µM
  TGI: > 25 µM
